Measurements reported in ChEMBL document CHEMBL3862012, “Methylene versus carbonyl bridge in the structure of new tubulin polymerization inhibitors with tricyclic A-rings” (Bioorg Med Chem, 2016).

Key:
Ovis aries = species on record: Ovis aries; test: Inhibition of sheep brain tubulin polymerization at 100 uM by DAPI staining-based fluorimetric method relative to control
[1] = Cytotoxicity against human HL-60(TB) cells assessed as growth inhibition at 10 uM after 48 hrs by SRB assay relative to control; type: functional; conditions: HL-60, 48 h, read-out: GI
[2] = Cytotoxicity against human MOLT4 cells assessed as growth inhibition at 10 uM after 48 hrs by SRB assay relative to control; type: functional; conditions: MOLT-4, 48 h, read-out: GI
[3] = Cytotoxicity against human RPMI8226 cells assessed as growth inhibition at 10 uM after 48 hrs by SRB assay relative to control; type: functional; conditions: RPMI-8226, 48 h, read-out: GI
[4] = Cytotoxicity against human SR cells assessed as growth inhibition at 10 uM after 48 hrs by SRB assay relative to control; type: functional; conditions: read-out: GI
[5] = Cytotoxicity against human A549 cells assessed as growth inhibition at 10 uM after 48 hrs by SRB assay relative to control; type: functional; conditions: A549, 48 h, read-out: GI
[6] = Cytotoxicity against human EKVX cells assessed as growth inhibition at 10 uM after 48 hrs by SRB assay relative to control; type: functional; conditions: read-out: GI
[7] = Cytotoxicity against human HOP62 cells assessed as growth inhibition at 10 uM after 48 hrs by SRB assay relative to control; type: functional; conditions: HOP-62, 48 h, read-out: GI
[8] = Cytotoxicity against human HOP92 cells assessed as growth inhibition at 10 uM after 48 hrs by SRB assay relative to control; type: functional; conditions: HOP-92, 48 h, read-out: GI
[9] = Cytotoxicity against human NCI-H226 cells assessed as growth inhibition at 10 uM after 48 hrs by SRB assay relative to control; type: functional; conditions: NCI-H226, 48 h, read-out: GI
[10] = Cytotoxicity against human NCI-H322M cells assessed as growth inhibition at 10 uM after 48 hrs by SRB assay relative to control; type: functional; conditions: read-out: GI
[11] = Cytotoxicity against human NCI-H460 cells assessed as growth inhibition at 10 uM after 48 hrs by SRB assay relative to control; type: functional; conditions: NCI-H460, 48 h, read-out: GI
[12] = Cytotoxicity against human NCI-H522 cells assessed as growth inhibition at 10 uM after 48 hrs by SRB assay relative to control; type: functional; conditions: NCI-H522, 48 h, read-out: GI
[13] = Cytotoxicity against human COLO205 cells assessed as growth inhibition at 10 uM after 48 hrs by SRB assay relative to control; type: functional; conditions: COLO 205, 48 h, read-out: GI
[14] = Cytotoxicity against human HCT15 cells assessed as growth inhibition at 10 uM after 48 hrs by SRB assay relative to control; type: functional; conditions: HCT-15, 48 h, read-out: GI
[15] = Cytotoxicity against human HT-29 cells assessed as growth inhibition at 10 uM after 48 hrs by SRB assay relative to control; type: functional; conditions: HT-29, 48 h, read-out: GI
[16] = Cytotoxicity against human SW620 cells assessed as growth inhibition at 10 uM after 48 hrs by SRB assay relative to control; type: functional; conditions: SW-620, 48 h, read-out: GI
[17] = Cytotoxicity against human SF295 cells assessed as growth inhibition at 10 uM after 48 hrs by SRB assay relative to control; type: functional; conditions: SF-295, 48 h, read-out: GI
[18] = Cytotoxicity against human SNB19 cells assessed as growth inhibition at 10 uM after 48 hrs by SRB assay relative to control; type: functional; conditions: SNB-19, 48 h, read-out: GI
[19] = Cytotoxicity against human LOXIMVI cells assessed as growth inhibition at 10 uM after 48 hrs by SRB assay relative to control; type: functional; conditions: LOX IMVI, read-out: GI
[20] = Cytotoxicity against human MALME-3M cells assessed as growth inhibition at 10 uM after 48 hrs by SRB assay relative to control; type: functional; conditions: read-out: GI
[21] = Cytotoxicity against human SK-MEL-2 cells assessed as growth inhibition at 10 uM after 48 hrs by SRB assay relative to control; type: functional; conditions: SK-MEL-2, 48 h, read-out: GI
[22] = Cytotoxicity against human UACC257 cells assessed as growth inhibition at 10 uM after 48 hrs by SRB assay relative to control; type: functional; conditions: UACC-257, 48 h, read-out: GI
[23] = Cytotoxicity against human IGROV1 cells assessed as growth inhibition at 10 uM after 48 hrs by SRB assay relative to control; type: functional; conditions: IGROV-1, 48 h, read-out: GI
[24] = Cytotoxicity against human OVCAR3 cells assessed as growth inhibition at 10 uM after 48 hrs by SRB assay relative to control; type: functional; conditions: OVCAR-3, 48 h, read-out: GI
[25] = Cytotoxicity against human OVCAR4 cells assessed as growth inhibition at 10 uM after 48 hrs by SRB assay relative to control; type: functional; conditions: OVCAR-4, 48 h, read-out: GI
[26] = Cytotoxicity against human NCI-ADR-RES cells assessed as growth inhibition at 10 uM after 48 hrs by SRB assay relative to control; type: functional; conditions: read-out: GI
[27] = Cytotoxicity against human A498 cells assessed as growth inhibition at 10 uM after 48 hrs by SRB assay relative to control; type: functional; conditions: A498, 48 h, read-out: GI
[28] = Cytotoxicity against human ACHN cells assessed as growth inhibition at 10 uM after 48 hrs by SRB assay relative to control; type: functional; conditions: read-out: GI
[29] = Cytotoxicity against human RXF393 cells assessed as growth inhibition at 10 uM after 48 hrs by SRB assay relative to control; type: functional; conditions: RXF 393, 48 h, read-out: GI
[30] = Cytotoxicity against human TK10 cells assessed as growth inhibition at 10 uM after 48 hrs by SRB assay relative to control; type: functional; conditions: TK-10, 48 h, read-out: GI
[31] = Cytotoxicity against human UO31 cells assessed as growth inhibition at 10 uM after 48 hrs by SRB assay relative to control; type: functional; conditions: UO-31, 48 h, read-out: GI
[32] = Cytotoxicity against human PC3 cells assessed as growth inhibition at 10 uM after 48 hrs by SRB assay relative to control; type: functional; conditions: PC-3, 48 h, read-out: GI
[33] = Cytotoxicity against human DU145 cells assessed as growth inhibition at 10 uM after 48 hrs by SRB assay relative to control; type: functional; conditions: DU-145, 48 h, read-out: GI
[34] = Cytotoxicity against human MDA-MB-231 cells assessed as growth inhibition at 10 uM after 48 hrs by SRB assay relative to control; type: functional; conditions: MDA-MB-231, 48 h, read-out: GI
[35] = Cytotoxicity against human Hs 578T cells assessed as growth inhibition at 10 uM after 48 hrs by SRB assay relative to control; type: functional; conditions: read-out: GI
[36] = Cytotoxicity against human MDA-MB-468 cells assessed as growth inhibition at 10 uM after 48 hrs by SRB assay relative to control; type: functional; conditions: MDA-MB-468, 48 h, read-out: GI

| SMILES | inhibition (Ovis aries) [%] | inhibition of growth at 10 µM [1] [%] | inhibition of growth at 10 µM [2] [%] | inhibition of growth at 10 µM [3] [%] | inhibition of growth at 10 µM [4] [%] | inhibition of growth at 10 µM [5] [%] | inhibition of growth at 10 µM [6] [%] | inhibition of growth at 10 µM [7] [%] | inhibition of growth at 10 µM [8] [%] | inhibition of growth at 10 µM [10] [%] | inhibition of growth at 10 µM [11] [%] | inhibition of growth at 10 µM [12] [%] | inhibition of growth at 10 µM [13] [%] | inhibition of growth at 10 µM [14] [%] | inhibition of growth at 10 µM [15] [%] | inhibition of growth at 10 µM [16] [%] | inhibition of growth at 10 µM [17] [%] | inhibition of growth at 10 µM [18] [%] | inhibition of growth at 10 µM [19] [%] | inhibition of growth at 10 µM [20] [%] | other results |
| --- | --- | --- | --- | --- | --- | --- | --- | --- | --- | --- | --- | --- | --- | --- | --- | --- | --- | --- | --- | --- | --- |
| COc1ccc(CN2c3ccccc3CCc3ccccc32)cc1F | 58 | 100 | 84 | 91 | 88 | 79 | 59 | 63 | 64 | 42 | 93 | 100 | 100 | 75 | 98 | 79 | 88 | 61 | 50 | 16 | inhibition of growth at 10 µM [9]: 47%; inhibition of growth at 10 µM [21]: 73%; inhibition of growth at 10 µM [22]: 38%; inhibition of growth at 10 µM [23]: 48%; inhibition of growth at 10 µM [24]: 100%; inhibition of growth at 10 µM [25]: 58%; inhibition of growth at 10 µM [26]: 89%; inhibition of growth at 10 µM [27]: 100%; inhibition of growth at 10 µM [28]: 64%; inhibition of growth at 10 µM [29]: 82%; inhibition of growth at 10 µM [30]: 37%; inhibition of growth at 10 µM [31]: 57%; inhibition of growth at 10 µM [32]: 76%; inhibition of growth at 10 µM [33]: 91%; inhibition of growth at 10 µM [34]: 83%; inhibition of growth at 10 µM [35]: 70%; inhibition of growth at 10 µM [36]: 96% |
| COc1ccc(CN2c3ccccc3Oc3ccccc32)cc1F | 1 | 46 | 58 | 39 | 73 | 56 | 39 | 48 | 33 | 8 | 52 | 100 | 58 | 53 | 89 | 66 | 67 | 32 | 41 | 41 | inhibition of growth at 10 µM [21]: 90%; inhibition of growth at 10 µM [22]: 41%; inhibition of growth at 10 µM [23]: 48%; inhibition of growth at 10 µM [24]: 57%; inhibition of growth at 10 µM [25]: 28%; inhibition of growth at 10 µM [26]: 59%; inhibition of growth at 10 µM [27]: 46%; inhibition of growth at 10 µM [28]: 19%; inhibition of growth at 10 µM [29]: 16%; inhibition of growth at 10 µM [30]: 26%; inhibition of growth at 10 µM [31]: 47%; inhibition of growth at 10 µM [32]: 35%; inhibition of growth at 10 µM [33]: 4%; inhibition of growth at 10 µM [34]: 47%; inhibition of growth at 10 µM [35]: 38%; inhibition of growth at 10 µM [36]: 56% |
| COc1ccc(CN2c3ccccc3Sc3ccccc32)cc1O | 64 | 79 | 82 | 76 | 84 | 86 | 63 | 64 | 50 | 67 | 90 | 100 | 100 | 67 | 91 | 69 | 96 | 67 | 57 | 28 | inhibition of growth at 10 µM [9]: 29%; inhibition of growth at 10 µM [21]: 91%; inhibition of growth at 10 µM [22]: 48%; inhibition of growth at 10 µM [23]: 70%; inhibition of growth at 10 µM [24]: 93%; inhibition of growth at 10 µM [25]: 54%; inhibition of growth at 10 µM [26]: 82%; inhibition of growth at 10 µM [27]: 24%; inhibition of growth at 10 µM [28]: 58%; inhibition of growth at 10 µM [29]: 100%; inhibition of growth at 10 µM [30]: 42%; inhibition of growth at 10 µM [31]: 76%; inhibition of growth at 10 µM [32]: 74%; inhibition of growth at 10 µM [33]: 82%; inhibition of growth at 10 µM [34]: 59%; inhibition of growth at 10 µM [35]: 67%; inhibition of growth at 10 µM [36]: 91% |
| COc1ccc(CN2c3ccccc3Oc3ccccc32)cc1O | 4 | 84 | 75 | 86 | 83 | 62 | 65 | 58 | 67 | 44 | 87 | 100 | 9 | 72 | 17 | 73 | 86 | 65 | 61 | 55 | inhibition of growth at 10 µM [9]: 6%; inhibition of growth at 10 µM [21]: 100%; inhibition of growth at 10 µM [22]: 61%; inhibition of growth at 10 µM [23]: 55%; inhibition of growth at 10 µM [24]: 81%; inhibition of growth at 10 µM [25]: 45%; inhibition of growth at 10 µM [26]: 75%; inhibition of growth at 10 µM [28]: 64%; inhibition of growth at 10 µM [29]: 50%; inhibition of growth at 10 µM [30]: 36%; inhibition of growth at 10 µM [31]: 68%; inhibition of growth at 10 µM [32]: 69%; inhibition of growth at 10 µM [33]: 63%; inhibition of growth at 10 µM [34]: 43%; inhibition of growth at 10 µM [35]: 69%; inhibition of growth at 10 µM [36]: 93% |
